In patent US7101844B2, “Cytoplasmic transduction peptides and uses thereof” (Creagene, Inc., priority 2002, dated 2006):
Entries after “also recorded” stand apart in the source; their conditions may differ. Primed or numbered codes have the meaning given here. No end group written: not given here. FITC′ = not defined here

Columns and labels:
[1] = molecular target: T1, XIAP (X-linked inhibitor of apoptosis protein) (Homo sapiens, UniProt P98170); assay: Inhibition of XIAP function: UV-induced apoptosis of XIAP-transfected Jurkat E6 cells (Annexin V FACS); format: cell-based; conditions: 0.1, 0.5, 1 μg/ml peptide, 2 hr
T1 construct: expressed in transfected cells; host or cells: Jurkat E6
T1 sequence (P98170 whole entry, species assumed): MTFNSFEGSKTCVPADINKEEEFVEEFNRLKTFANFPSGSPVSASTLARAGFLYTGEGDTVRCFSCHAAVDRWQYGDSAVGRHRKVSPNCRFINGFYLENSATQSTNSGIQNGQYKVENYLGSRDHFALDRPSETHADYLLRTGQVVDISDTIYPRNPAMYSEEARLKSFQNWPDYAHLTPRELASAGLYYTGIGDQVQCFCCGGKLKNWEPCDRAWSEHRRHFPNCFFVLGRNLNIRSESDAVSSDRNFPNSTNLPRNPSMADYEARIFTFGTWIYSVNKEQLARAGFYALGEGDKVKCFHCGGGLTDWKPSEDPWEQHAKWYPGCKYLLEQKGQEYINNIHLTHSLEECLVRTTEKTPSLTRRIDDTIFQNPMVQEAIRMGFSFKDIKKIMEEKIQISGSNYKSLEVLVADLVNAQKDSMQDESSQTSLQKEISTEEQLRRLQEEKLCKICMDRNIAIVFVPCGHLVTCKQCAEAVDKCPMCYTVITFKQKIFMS
Method: Since the first amino acid, alanine, of the 7-amino acid sequence at the N-terminal of the Smac/DIABLO peptide is pivotal in binding to XIAP, as reported previously, CTP was linked to C-terminal of the Smac/DIABLO peptide to prepare Smac/Diablo-CTP-FITC peptide. For detection, FITC was conjugated at the C-terminal of the peptide: Smac/Diablo-CTP-FITC ([…]-FITC).
Jurkat E6 (2×10^5 cell/ml) were transfected with 10 μg of pcDNA3-XIAP using a transfection reagent, GenePORTER 2 (1 μl/μg DNA) and cultured for 2 days at 37° C. in RPMI containing 10% FBS. Two days later, the cells were washed twice with 1× PBS, and treated with Smac/Diablo-CTP-FITC peptide (synthesized at HHMI, KECK BIOTECHNOLOGY RESOURCE CENTER) for 2 hr at 37° C. in a serum free media at concentrations of 0.1 μg/ml, 0.5 μg/ml and 1 μg/ml. Then, to measure the extent of apoptosis, the cells were exposed to UV light (40 W) for 50 sec in a culture hood. After 6 hr, the cells were washed twice with 1 × PBS and the apoptozed cells were measured by FACS using Annexin V-FITC apoptosis detection kit (BD Biosciences Pharmingen. Cot: 556547).

HeLa cells [2] = assay: Transduction of PTD- and CTP-β-galactosidase into HeLa cells (X-gal staining after fixation); format: cell-based; conditions: 100 μg/ml, 1 hr; for transduction potential: β-galactosidase fusion protein, HeLa cells, fixation; for order of transduction potentials into HeLa cells: β-galactosidase fusion, X-gal staining
Text: Although various other substitutions could be performed, it is essential in this invention that the introduction of a positive charge by arginine and the substitution by an α-helix stabilizing amino acid should be carried out for maintaining the principle function of the PTD peptide. Therefore, as a substitute amino acid, the positively charged amino acid is restricted to arginine, and the negatively charged amino acid is restricted to glutamic acid. β-galactosidase was fused to the CTP candidate peptide, the fusion proteins were isolated and purified (see FIG. 2), and HeLa cells were treated with each of the fusion proteins. This was then followed by an analysis of the transduction potential and a determination of the extent of the cytoplasmic remaining property.
The transduction potential of the PTD and CTP candidates was tested with HeLa cells. Using a 24-well plate (Nunc), 5×10^4 HeLa cells were inoculated into high glucose DMEM (containing 10% FBS) and cultured for 36 hr. The cells were rinsed with PBS and treated with 100 μg/ml of PTD- and CTP-β-galactosidase in an opti-MEM I medium. After 1-hr incubation, cells were fixed for 10 min at room temperature with a fixation solution (2% formaldehyde, 0.2% glutaraldehyde in PBS). Then, the cells were rinsed twice with PBS, and stained for 2 hr with dye (0.1% X-gal, 5 mM potassium ferricyanide, 5 mM potassium ferrocyanide, 2 mM MgCl2 in PBS) to examine their transduction potential (see FIG. 3). The samples showing a low level of staining, even after a 2-hr staining, were incubated overnight, and then stained for the relative transduction potential. The transduction potentials of the PTD and CTP candidates into HeLa cells were seen to be in the following order: PTD5<CTP502<<CTP501=CTP506<CTP507<CTP505<CTP503=CTP504<CTP508=CTP510=MTS<CTP509<<PTD=CTP511<<CTP512.

HeLa cells [3] = assay: Subcellular localization of CTP-β-gal by confocal scanning microscope; format: cell-based; conditions: β-galactosidase fusion protein, 100 μg/ml, 1 hr
Text: To select cytoplamic transduction peptides (CTPs) of interest, HeLa cells were transduced with CTP-β-galactosidase, and then examined under the confocal scanning microscope. Before the confocal analysis, cells were stained with mouse anti-β-galactosidase antibody and 2nd antibodies conjugated with FITC (Fluorescence-iso-thio-cyanate) or with PE (phycoerythrin) together with DNA staining reagent (green fluorescence SYTO-16 DNA staining dye, Molecular Probe). First, HeLa cells (5×10^5 cells/ml) were plated onto a 6-well plate containing sterilized cover-slips and cultured overnight at 37° C. CO2 incubator. The cells were washed with PBS (pH 7.4) and 1 ml of an OPTI-MEM I medium was added, followed by treatment with candidate CTP-fused proteins (100 μg/ml). As a positive control, PTD-β-galactosidase fusion protein was employed, and as a negative control, only β-galactosidase protein was used. Following the treatment with candidate CTP-β-galactosidase fusion proteins, cells were incubated for 1 hr at 37° C. incubator. The cells were rinsed three times with PBS and fixed with 2% paraformaldehyde for 20 min at 4° C. HeLa cells fixed were washed twice with washing buffer (PBS containing 0.2% BSA and 0.02% sodium azide). To stain the cells with antibody, cells were pre-treated with 0.5% Triton X-100 (in PBS, Sigma) at 4° C. for 20 min. Cells were washed three times with washing buffer and then stained with mouse anti-β-galactosidase antibody (diluted 1:2,000, Sigma) for 1 hr at 4° C. as a primary antibody and then washed three times with washing buffer. Cells were then incubated with FITC-conjugated goat anti-mouse IgG (diluted 1:2,000, Jackson Laboratory) as a secondary antibody for 20 min at 4° C. Washed 3 times with the same washing buffer, cells were fixed on a slide glass with fluorescence mounting medium (DAKO) and the edge of slide glass was sealed with nail vanish.
Double staining was carried out with SYTO-16 DNA staining dye as follows: First, the cells were incubated with the primary antibodies under the same conditions and rinsed three times. Then, the cells were incubated at 4° C. for 20 min with PE-conjugated goat anti-mouse IgG PE (diluted 1:2,000, Jackson Laboratory). Washed three times with washing buffer, cells were incubated with SYTO-16 DNA staining dye (diluted 1:1,000, DAKO) for 20 min at 4° C. Cells were fixed and sealed on a slide glass and then examined under a confocal laser scanning microscope.
In the present experiment, LEICA TCS NT SP confocal microscope (LEICA Lasertech GmbH, Heidelverg, Germany) was employed, which was equipped with lager generator of argon (Ar) and krypton (Kr), scanning device, and filter capable of detecting FITC (510–550 nm) and PE (600–660) at independent channel. Photographs were taken by PL-APO X100 objective. For single staining, the cells were sectioned into 4-layers and fluorescence and transmission photographs were taken. For double staining, FITC, PE, and transmission photographs were taken using optimal respective filter.

HeLa cells [4] = assay: Transduction potential of CTP-β-gal following treatment with trypsin (staining); format: cell-based; conditions: 50 μg/ml, 20 hr, trypsin before fixation
Method: HeLa cells were cultured for 1 day in DMEM (high glucose) at a density of 2×10^5/ml in 48-well plates. Cells were washed once with 1× PBS, and then incubated further for additional 20 hr in OPTI-MEM containing PTD-β-gal, MTS-β-gal, CTP501-β-gal or CTP514-β-gal, respectively, at a concentration of 50 μg/ml. Thereafter, the cells were treated with trypsin-EDTA (10×) for 3 min at 37° C. to remove the CPP-β-gal attached to the cell surface, and then rinsed twice with 1× PBS, followed by fixing with a fixation solution for 10 min at room temperature. After washing twice with 1× PBS, the cells were stained with a staining solution for 2 hr at 37° C. and photographed under a microscope (FIG. 6b).

HeLa cells [5] = assay: Subcellular localization of CTP-FITC by confocal microscope without cell fixation; format: cell-based; conditions: FITC-labeled peptide, 25 μg/ml, 1 hr
Text: Fixation step is inevitable for examining the subcellular localization of the transduced β-gal in the cells with antibodies. However, according to the previous reports, the fusion protein attached to cell surface is very likely to be introduced into the cell during a cell fixation procedure, which may affect its transduction potential and its subcellular localization. However, FITC-labeled membrane permeation peptides allow its subcellular localization to be observed under a confocal microscope without cell fixation. Monolayered HeLa cells were treated for 1 hr with FITC-labeled CTP, PTD or MTS at a concentration of 25 μg/ml, and washed three times with HBSS, followed by observation under a confocal microscope without cell fixation.

[6] = cited from earlier work
HeLa cells [7] = assay: Kinetics on the transduction of CTP-β-gal and PTD-β-gal; format: cell-based; conditions: trypsin prior to cell harvest
Method: The Membrane permeability of CTP-β-gal and PTD-β-gal was analyzed in kinetics. Cells were treated with the fusion protein and lysed with 0.9% Triton X-100 solution without trypsinization, after which the overall β-gal activity in the cells was measured. Furthermore, in order to measure the authentic trnsduction amount of β-gal imported into the cells, the cells were trypsinized following the treatment with fusion protein, and then examined the amount of the β-gal activity imported into the cells in the same conditions (see FIG. 8).

[8] = parameters: species or system BALB/c mice; conditions: mouse, in vivo, iv
Method: To elucidate whether the CTP of this invention can deliver its fusion partner into cells in vivo as well as into cells in vitro, BALB/c mice were injected i.p. with 25 μg/(g of mouse) of CTP-β-gal, PTD-β-gal, MTS-β-gal fusion protein or β-gal protein, or injected i.v. via tail vein with 100 μg/mouse of fusion proteins. Four hr after injection, mice were euthanized and skinned, and their peritoneal cavities were dissected, followed by washing three times with a PBS buffer. After fixation with a fixing solution, whole body was stained in X-gal solution. Each organ was extracted and the β-gal activity was measured.

[9] = mouse, in vivo
Method: CTP-β-gal was administered via the peritoneal cavity or a tail vein of mice. Four hr later, organs such as thymus, heart, spleen, liver and kidney were extracted. The organs rapidly frozen were sectioned with a microtome, and then incubated overnight in a X-gal reaction solution, followed by observation of the β-gal activity under a microscope.

AVPIAQKSEGGRRARRRRRRK-FITC (AVPIAQKSEGGRRARRRRRRK-{FITC′}) [Smac/Diablo-CTP-FITC, N-terminal Smac/DIABLO peptide linked to CTP, FITC at the C-terminal]
apoptosis of cells transfected with 10 μg pcDNA-XIAP DNA [1]: greatly increased

CTP511: CTP candidate (2G4R8R), sequence YGRRARRRARR
transduction potential (HeLa cells [2]): transduction potential similar to the wild type PTD; also recorded: significantly high transduction potential
transduction potential (HeLa cells [2]; listed as CTP 511): transduction potential identical to PTD
order of transduction potentials into HeLa cells (HeLa cells [2]): PTD=CTP511<<CTP512
cytoplasmic remaining property / subcellular localization (HeLa cells [3]): significantly high
cytoplasmic remaining property / subcellular localization (HeLa cells [3]; listed as CTP 511): excellent cytoplasmic remaining property
β-gal activity transduced into cells (HeLa cells [4]): almost equivalent to that of the PTD

CTP513: CTP (2G4R5R8R9R), sequence YGRRRRRRRRR
β-gal activity transduced into cells (HeLa cells [4]): much more efficient to transduce β-gal into cells than either PTD or MTS
order of transduction potential (HeLa cells [5]): CTP512>513>>514
subcellular localization (HeLa cells [5]): observed only in the cytoplasm, and not in the nucleus

CTP514: CTP (2R4R5R8R9R), sequence YRRRRRRRRRR
β-gal activity transduced into cells (HeLa cells [4]): almost equivalent to that of the PTD
subcellular localization (HeLa cells [5]): observed only in the cytoplasm, and not in the nucleus

PTD5: PTD derivative of the Dowdy group; differs from CTP504 only by alanine at position 2, i.e. YARAARRAARR (CTP50, Table 1) [reference compound]
order of transduction potentials into HeLa cells (HeLa cells [2]): PTD5<CTP502
cytoplasmic remaining property / subcellular localization (HeLa cells [3]): relatively increased pattern in terms of the extent it remains in the cytoplasm as compared to PTD
efficiency of delivering peptides into the cell, higher than PTD (TAT) ([6]; peptides, reported by the Dowdy group): 8 fold

RRRRRRRRR [Arg polycationic homopolymer]
transduction efficiency greater than Tat PTD ([6]; Wender et al., 2000): 20 fold

β-gal: only β-galactosidase protein, negative control
transduction potential / import into cells over time (HeLa cells [7]): not to be imported into cells with the lapse of time
β-gal activity in auxiliary, inguinal and popliteal lymph nodes [8]: not observed
β-gal activity in organ sections (thymus, heart, spleen, liver, kidney) [9]: little or no β-gal activity in the inner side
